From patent US10167262B2, “Herbicidal substituted 3-arylpyrazoles” (FMC CORPORATION, priority 2014, dated 2019)

Tests used:
Assay in all cases: Test E pre-/postemergence greenhouse test, plant response rating 0-100
Format in all cases: in vivo
[1] = system: waterhemp (common waterhemp, Amaranthus rudis); conditions: scale 0 to 100; for Plant response rating, Waterhemp: Postemergence; for Waterhemp plant response rating: Preemergence
Summary of the method: (§1)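 Visual control score, 0–100 relative to untreated plants, recorded 14–21 days after spraying. Treatments: preemergence on silt loam seedbeds and postemergence at the 1- to 4-leaf stage, with compound in surfactant-containing solvent.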

[2] = system: sandbur (southern sandbur, Cenchrus echinatus); conditions: scale 0 to 100; for Plant response rating, Sandbur: Postemergence; for Sandbur plant response rating: Preemergence
Summary of the method: as §1

[3] = system: Brazilian crabgrass (Digitaria horizontalis); conditions: scale 0 to 100; for Plant response rating, Crabgrass, Brazil: Postemergence; for Crabgrass, Brazil plant response rating: Preemergence
Summary of the method: as §1

[4] = system: arrowleaf sida (Sida rhombifolia); conditions: for Plant response rating, Arrowleaf Sida: Postemergence; for Arrowleaf Sida plant response rating: Preemergence
Summary of the method: as §1

[5] = system: hairy beggarticks (Bidens pilosa); conditions: scale 0 to 100; for Plant response rating, Beggarticks: Postemergence; for Beggarticks plant response rating: Preemergence
Summary of the method: as §1

[6] = system: wild poinsettia (Euphorbia heterophylla); conditions: scale 0 to 100; for Plant response rating, Poinsettia, Wild: Postemergence; for Poinsettia, Wild plant response rating: Preemergence
Summary of the method: as §1

[7] = system: fall panicum (Panicum dichotomiflorum); conditions: scale 0 to 100; for Plant response rating, Panicum, Fall: Postemergence; for Panicum, Fall plant response rating: Preemergence
Summary of the method: as §1

soybean (Glycine max) = conditions: scale 0 to 100; for Plant response rating, Soybean: Postemergence; for Soybean plant response rating: Preemergence
Summary of the method: as §1

[8] = system: barnyardgrass (Echinochloa crus-galli); conditions: scale 0 to 100; for Plant response rating, Barnyardgrass: Postemergence; for Barnyardgrass plant response rating: Preemergence
Summary of the method: as §1

corn (Zea mays) = conditions: scale 0 to 100; for Plant response rating, Corn: Postemergence; for Corn plant response rating: Preemergence
Summary of the method: as §1

[9] = system: palmer pigweed (Amaranthus palmeri); conditions: scale 0 to 100; for Plant response rating, Pigweed, Palmer: Postemergence; for Pigweed, Palmer plant response rating: Preemergence
Summary of the method: as §1

O=Cn1cc(C(=O)c2ccccc2)c(-c2cc(Cl)cc(Cl)c2)n1 [Compound 28]
Plant response rating, Waterhemp ([1]; 31 g ai/ha): 80
Plant response rating, Waterhemp ([1]; 62 g ai/ha): 85
Plant response rating, Waterhemp ([1]; 125 g ai/ha): 85
Plant response rating, Waterhemp ([1]; 250 g ai/ha): 90
Plant response rating, Waterhemp ([1]; 500 g ai/ha): 90
Waterhemp plant response rating ([1]; 31 g ai/ha): 0
Waterhemp plant response rating ([1]; 62 g ai/ha): 0
Waterhemp plant response rating ([1]; 125 g ai/ha): 65
Waterhemp plant response rating ([1]; 250 g ai/ha): 95
Waterhemp plant response rating ([1]; 500 g ai/ha): 95
Plant response rating, Sandbur ([2]; 31 g ai/ha): 0
Plant response rating, Sandbur ([2]; 62 g ai/ha): 0
Plant response rating, Sandbur ([2]; 125 g ai/ha): 0
Plant response rating, Sandbur ([2]; 250 g ai/ha): 0
Plant response rating, Sandbur ([2]; 500 g ai/ha): 0
Sandbur plant response rating ([2]; 31 g ai/ha): 0
Sandbur plant response rating ([2]; 62 g ai/ha): 0
Sandbur plant response rating ([2]; 125 g ai/ha): 0
Sandbur plant response rating ([2]; 250 g ai/ha): 0
Sandbur plant response rating ([2]; 500 g ai/ha): 0
Plant response rating, Crabgrass, Brazil ([3]; 31 g ai/ha): 0
Plant response rating, Crabgrass, Brazil ([3]; 62 g ai/ha): 0
Plant response rating, Crabgrass, Brazil ([3]; 125 g ai/ha): 0
Plant response rating, Crabgrass, Brazil ([3]; 250 g ai/ha): 0
Plant response rating, Crabgrass, Brazil ([3]; 500 g ai/ha): 0
Crabgrass, Brazil plant response rating ([3]; 31 g ai/ha): 0
Crabgrass, Brazil plant response rating ([3]; 62 g ai/ha): 0
Crabgrass, Brazil plant response rating ([3]; 125 g ai/ha): 0
Crabgrass, Brazil plant response rating ([3]; 250 g ai/ha): 35
Crabgrass, Brazil plant response rating ([3]; 500 g ai/ha): 65
Plant response rating, Arrowleaf Sida ([4]; 31 g ai/ha, scale 0 to 100): 65
Plant response rating, Arrowleaf Sida ([4]; 62 g ai/ha, scale 0 to 100): 60
Plant response rating, Arrowleaf Sida ([4]; 125 g ai/ha, scale 0 to 100): 75
Plant response rating, Arrowleaf Sida ([4]; 250 g ai/ha, scale 0 to 100): 85
Plant response rating, Arrowleaf Sida ([4]; 500 g ai/ha, scale 0 to 100 (0 no effect, 100 complete control)): 90
Arrowleaf Sida plant response rating ([4]; 31 g ai/ha, scale 0 to 100): 0
Arrowleaf Sida plant response rating ([4]; 62 g ai/ha, scale 0 to 100): 20
Arrowleaf Sida plant response rating ([4]; 125 g ai/ha, scale 0 to 100): 75
Arrowleaf Sida plant response rating ([4]; 250 g ai/ha, scale 0 to 100): 90
Arrowleaf Sida plant response rating ([4]; 500 g ai/ha, scale 0 to 100): 100
Plant response rating, Beggarticks ([5]; 31 g ai/ha): 80
Plant response rating, Beggarticks ([5]; 62 g ai/ha): 90
Plant response rating, Beggarticks ([5]; 125 g ai/ha): 95
Plant response rating, Beggarticks ([5]; 250 g ai/ha): 98
Plant response rating, Beggarticks ([5]; 500 g ai/ha): 98
Beggarticks plant response rating ([5]; 31 g ai/ha): 0
Beggarticks plant response rating ([5]; 62 g ai/ha): 0
Beggarticks plant response rating ([5]; 125 g ai/ha): 40
Beggarticks plant response rating ([5]; 250 g ai/ha): 70
Beggarticks plant response rating ([5]; 500 g ai/ha): 70
Plant response rating, Poinsettia, Wild ([6]; 31 g ai/ha): 0
Plant response rating, Poinsettia, Wild ([6]; 62 g ai/ha): 0
Plant response rating, Poinsettia, Wild ([6]; 125 g ai/ha): 0
Plant response rating, Poinsettia, Wild ([6]; 250 g ai/ha): 10
Plant response rating, Poinsettia, Wild ([6]; 500 g ai/ha): 15
Poinsettia, Wild plant response rating ([6]; 31 g ai/ha): 0
Poinsettia, Wild plant response rating ([6]; 62 g ai/ha): 0
Poinsettia, Wild plant response rating ([6]; 125 g ai/ha): 0
Poinsettia, Wild plant response rating ([6]; 250 g ai/ha): 0
Poinsettia, Wild plant response rating ([6]; 500 g ai/ha): 0
Plant response rating, Panicum, Fall ([7]; 31 g ai/ha): 0
Plant response rating, Panicum, Fall ([7]; 62 g ai/ha): 0
Plant response rating, Panicum, Fall ([7]; 125 g ai/ha): 0
Plant response rating, Panicum, Fall ([7]; 250 g ai/ha): 0
Plant response rating, Panicum, Fall ([7]; 500 g ai/ha): 0
Panicum, Fall plant response rating ([7]; 31 g ai/ha): 0
Panicum, Fall plant response rating ([7]; 62 g ai/ha): 0
Panicum, Fall plant response rating ([7]; 125 g ai/ha): 0
Panicum, Fall plant response rating ([7]; 250 g ai/ha): 0
Panicum, Fall plant response rating ([7]; 500 g ai/ha): 0
Plant response rating, Soybean (soybean (Glycine max); 31 g ai/ha): 0
Plant response rating, Soybean (soybean (Glycine max); 62 g ai/ha): 0
Plant response rating, Soybean (soybean (Glycine max); 125 g ai/ha): 0
Plant response rating, Soybean (soybean (Glycine max); 250 g ai/ha): 0
Plant response rating, Soybean (soybean (Glycine max); 500 g ai/ha): 0
Soybean plant response rating (soybean (Glycine max); 31 g ai/ha): 0
Soybean plant response rating (soybean (Glycine max); 62 g ai/ha): 0
Soybean plant response rating (soybean (Glycine max); 125 g ai/ha): 0
Soybean plant response rating (soybean (Glycine max); 250 g ai/ha): 0
Soybean plant response rating (soybean (Glycine max); 500 g ai/ha): 0
Plant response rating, Barnyardgrass ([8]; 31 g ai/ha): 0
Plant response rating, Barnyardgrass ([8]; 62 g ai/ha): 0
Plant response rating, Barnyardgrass ([8]; 125 g ai/ha): 0
Plant response rating, Barnyardgrass ([8]; 250 g ai/ha): 0
Plant response rating, Barnyardgrass ([8]; 500 g ai/ha): 0
Barnyardgrass plant response rating ([8]; 31 g ai/ha): 0
Barnyardgrass plant response rating ([8]; 62 g ai/ha): 0
Barnyardgrass plant response rating ([8]; 125 g ai/ha): 0
Barnyardgrass plant response rating ([8]; 250 g ai/ha): 0
Barnyardgrass plant response rating ([8]; 500 g ai/ha): 0
Plant response rating, Corn (corn (Zea mays); 31 g ai/ha): 0
Plant response rating, Corn (corn (Zea mays); 62 g ai/ha): 0
Plant response rating, Corn (corn (Zea mays); 125 g ai/ha): 0
Plant response rating, Corn (corn (Zea mays); 250 g ai/ha): 0
Plant response rating, Corn (corn (Zea mays); 500 g ai/ha): 0
Corn plant response rating (corn (Zea mays); 31 g ai/ha): 0
Corn plant response rating (corn (Zea mays); 62 g ai/ha): 0
Corn plant response rating (corn (Zea mays); 125 g ai/ha): 0
Corn plant response rating (corn (Zea mays); 250 g ai/ha): 0
Corn plant response rating (corn (Zea mays); 500 g ai/ha): 0
Plant response rating, Pigweed, Palmer ([9]; 31 g ai/ha): 50
Plant response rating, Pigweed, Palmer ([9]; 62 g ai/ha): 70
Plant response rating, Pigweed, Palmer ([9]; 125 g ai/ha): 70
Plant response rating, Pigweed, Palmer ([9]; 250 g ai/ha): 80
Plant response rating, Pigweed, Palmer ([9]; 500 g ai/ha): 90
Pigweed, Palmer plant response rating ([9]; 31 g ai/ha): 0
Pigweed, Palmer plant response rating ([9]; 62 g ai/ha): 0
Pigweed, Palmer plant response rating ([9]; 125 g ai/ha): 0
Pigweed, Palmer plant response rating ([9]; 250 g ai/ha): 25
Pigweed, Palmer plant response rating ([9]; 500 g ai/ha): 100
